{"source": "patent US20130115256A1", "about": "“METHODS FOR TREATING OR PREVENTING VASCULAR GRAFT FAILURE” (priority 2010, published 2013)", "key": {"MK2": {"target": "T1, MK2 (Homo sapiens, UniProt P49137)", "T1 construct": "purchased Millipore (IC50 Profiler Express / KinaseProfiler service)", "T1 sequence (P49137 whole entry, species assumed)": "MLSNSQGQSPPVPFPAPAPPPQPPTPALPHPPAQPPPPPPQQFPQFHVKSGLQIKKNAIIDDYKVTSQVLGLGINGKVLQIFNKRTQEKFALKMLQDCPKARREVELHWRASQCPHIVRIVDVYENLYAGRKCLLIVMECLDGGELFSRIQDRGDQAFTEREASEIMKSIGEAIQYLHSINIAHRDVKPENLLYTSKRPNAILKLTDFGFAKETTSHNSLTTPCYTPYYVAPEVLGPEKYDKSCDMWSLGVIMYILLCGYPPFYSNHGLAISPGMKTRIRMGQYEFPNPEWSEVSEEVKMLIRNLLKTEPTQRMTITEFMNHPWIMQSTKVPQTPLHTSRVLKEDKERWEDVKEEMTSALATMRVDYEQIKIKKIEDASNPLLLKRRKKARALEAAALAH", "test": "MK2 radiometric kinase assay", "assay_type": "biochemical", "from_the_text": "A commercial radiometric assay service was used to test the specificity and potency of MMI-0100 ([…]; SEQ ID NO: 1) by measuring its half maximal inhibitory concentrations (IC50). This quantitative assay measures how much MK2 inhibitor (MMI-0100; […] (SEQ ID NO: 1)) is needed to inhibit 50% of a given biological process or component of a process (i.e., an enzyme, cell, or cell receptor). Specifically, in these assays, a positively charged substrate is phosphorylated with a radiolabeled phosphate group from an ATP if the kinase is not inhibited by an inhibitor peptide. The positively charged substrate then is attracted to a negatively charged filter membrane, quantified with a scintillation counter, and compared to a 100% activity control. ATP concentrations within 15 μM of the apparent Km for ATP were chosen since an ATP concentration near the Km may allow for the kinases to have the same relative amount of phosphorylation activity. […]\nFor the MK2 radiometric assay, 5-10 mU of MK2 was incubated with 50 mM Na b-glycerophosphate pH 7.5, 0.1 mM EGTA, 30 μM KKLNRTLSVA (SEQ ID NO: 34; a substrate peptide for MK2), 10 mM MgAcetate, and 10 μM of [y-^33P-ATP] in a final reaction volume of 25 μl. […] The washed P30 filtermat was dried and its radioactivity was measured by scintillation counter.\nIC50 values for inhibitor peptides were determined using Millipore's IC50 Profiler Express service. […]"}, "THP-1 cells": {"test_system": "THP-1 cells", "test": "TNF-α and IL-1β production in PMA/LPS-treated THP-1 cells (ELISA)", "assay_type": "cell-based, human", "procedure": "The ability of MMI-0100 ([…]; SEQ ID NO: 1) to inhibit the production of inflammatory cytokines (TNF-α and IL-1β) in vitro was examined using THP-1 cells. Briefly, THP-1 cells were activated with PMA for 24 hours, and treated subsequently with 10 μg of LPS. The amount of inflammatory cytokines (TNF-α and IL-1β, pg/ml) produced in the medium in the presence or absence of increasing concentrations (1 μM, 3 μM, 10 μM, and 30 μM) of MMI-0100 ([…]; SEQ ID NO: 1) was determined by cytokine specific enzyme-linked immunosorbent assay (ELISA). Analysis of inflammatory cytokines (TNF-α and IL-1β) was performed with cytokine-specific ELISA kit (PeproTech, Inc., Rocky Hill, N.J.). The cytokine-specific ELISA employs highly-purified anti-cytokine antibodies (capture antibodies) that are noncovalently adsorbed (“coated”) onto plastic microwell plates. After washings, the immobilized antibodies capture specifically soluble cytokine proteins present in samples applied to the plate. After washing away unbound material, the captured cytokine proteins are detected by biotin-conjugated anti-cytokine antibodies (detection antibodies) followed by an enzyme-labeled avidin or streptavidin reporter. Following addition of a chromogenic (color-developing) substrate-containing solution, the level of colored product generated by the bound, enzyme-linked, detection reagents can be measured spectrophotometrically using an ELISA-plate reader at an appropriate optical density.\nIn order to prepare plates for ELISA, capture antibodies (anti-TNF-α or anti-IL-1β antibodies) were diluted with PBS to a concentration of 1 μg/ml. 100 μl of each diluted antibody was added immediately to each well of the ELISA plate. […]\nThe standard was diluted from 2 ng/ml to zero in diluent, and 100 μl of the standard or sample was added immediately to each well in triplicate and incubated at room temperature for at least 2 hours. […] The level of colored product generated by the bound, enzyme-linked, detection reagents was measured spectrophotometrically using an ELISA-plate reader at an appropriate optical density."}, "[1]": {"test_system": "mouse lung endothelial cells (MLEC)", "test": "Cell apoptosis analysis (annexin V flow cytometry)", "assay_type": "cell-based", "settings": "any dose; 24 hours", "procedure": "The apoptotic effect of MMI-0100 ([…]; SEQ ID NO: 1) on mouse lung endothelial cells (MLEC) was measured at 24 hours after MMI-0100 ([…]; SEQ ID NO: 1) treatment. MLEC were removed from the tissue culture plate by trypsin, and re-suspended at a concentration of 1.0×10^6 cells/ml. Apoptotic cells were detected by AlexaFluor® 488 annexin V/Dead Cell Apoptosis Kit (Invitrogen) using flow cytometry sorting analysis."}, "[2]": {"test_system": "mouse lung endothelial cells (MLEC)", "test": "MCP-1 production immunoassay", "assay_type": "cell-based", "settings": "even at high doses", "procedure": "Monocyte Chemotractic Protein-1 (MCP-1) production from mouse lung endothelial cells (MLEC) was analyzed using conditioned culture medium by Quantikine® Mouse CCL/JE/MCP-1 Immunoassay (R&D Systems) following the manufacturer's instructions. Briefly, the assay employs a quantitative sandwich enzyme immunoassay technique in which a monoclonal antibody specific for MCP-1 has been pre-coated onto a microplaste. Standards and samples are pipetted into the wells and any MCP-1 present is bound by the immobilized antibody. After washing away any unbound substances, an enzyme-linked polyclonal antibody specific for MCP-1 is added to the wells. Following a wash to remove any unbound antibody-enzyme reagent, a substrate solution is added to the wells and color develops in proportion to the amount of MCP-1 bound in the initial step. The color development is stopped and the intensity of the color is measured at 450 nm, with wavelength correction at 540 nm or 570 nm."}}, "data": [{"sequence": "YARAAARQARAKALARQLGVAA [MMI-0100]", "values": [{"measurement": "Percent Activity, MK2", "setting": "MK2; MMI-0100 100 μM, remaining kinase activity", "value": "<5", "unit": "%"}, {"measurement": "inhibition of MK2 activity", "setting": "MK2; concentration used for specificity profiling (Table 2, 100 μM)", "value": "> 95", "unit": "%"}, {"measurement": "IL-1β level in the medium", "setting": "THP-1 cells; 30 μM MMI-0100, PMA then LPS (stimulated control about 450 pg/ml)", "value": "about 100 pg/ml"}, {"measurement": "TNF-α level in the medium", "setting": "THP-1 cells; 30 μM MMI-0100, PMA then LPS (stimulated control about 1000 pg/ml)", "value": "about 300 pg/ml"}, {"measurement": "production of pro-inflammatory cytokines (TNF-α and IL-1β)", "setting": "THP-1 cells; 1, 3, 10, 30 μM MMI-0100", "value": "dose-dependent manner"}, {"measurement": "EC apoptosis", "setting": "[1]", "value": "did not induce EC apoptosis"}, {"measurement": "MCP-1 production", "setting": "[2]", "value": "did not stimulate MCP-1 production"}]}]}
